According to patent US20210198277A1, “AMINE-SUBSTITUTED ARYL OR HETEROARYL COMPOUNDS” (Epizyme, Inc., priority 2016, published 2021):

Molecular target: T1, EHMT2 (Homo sapiens, UniProt Q96KQ7)
T1 construct: host or cells: MDA-MB-231
T1 sequence (Q96KQ7 1-1210): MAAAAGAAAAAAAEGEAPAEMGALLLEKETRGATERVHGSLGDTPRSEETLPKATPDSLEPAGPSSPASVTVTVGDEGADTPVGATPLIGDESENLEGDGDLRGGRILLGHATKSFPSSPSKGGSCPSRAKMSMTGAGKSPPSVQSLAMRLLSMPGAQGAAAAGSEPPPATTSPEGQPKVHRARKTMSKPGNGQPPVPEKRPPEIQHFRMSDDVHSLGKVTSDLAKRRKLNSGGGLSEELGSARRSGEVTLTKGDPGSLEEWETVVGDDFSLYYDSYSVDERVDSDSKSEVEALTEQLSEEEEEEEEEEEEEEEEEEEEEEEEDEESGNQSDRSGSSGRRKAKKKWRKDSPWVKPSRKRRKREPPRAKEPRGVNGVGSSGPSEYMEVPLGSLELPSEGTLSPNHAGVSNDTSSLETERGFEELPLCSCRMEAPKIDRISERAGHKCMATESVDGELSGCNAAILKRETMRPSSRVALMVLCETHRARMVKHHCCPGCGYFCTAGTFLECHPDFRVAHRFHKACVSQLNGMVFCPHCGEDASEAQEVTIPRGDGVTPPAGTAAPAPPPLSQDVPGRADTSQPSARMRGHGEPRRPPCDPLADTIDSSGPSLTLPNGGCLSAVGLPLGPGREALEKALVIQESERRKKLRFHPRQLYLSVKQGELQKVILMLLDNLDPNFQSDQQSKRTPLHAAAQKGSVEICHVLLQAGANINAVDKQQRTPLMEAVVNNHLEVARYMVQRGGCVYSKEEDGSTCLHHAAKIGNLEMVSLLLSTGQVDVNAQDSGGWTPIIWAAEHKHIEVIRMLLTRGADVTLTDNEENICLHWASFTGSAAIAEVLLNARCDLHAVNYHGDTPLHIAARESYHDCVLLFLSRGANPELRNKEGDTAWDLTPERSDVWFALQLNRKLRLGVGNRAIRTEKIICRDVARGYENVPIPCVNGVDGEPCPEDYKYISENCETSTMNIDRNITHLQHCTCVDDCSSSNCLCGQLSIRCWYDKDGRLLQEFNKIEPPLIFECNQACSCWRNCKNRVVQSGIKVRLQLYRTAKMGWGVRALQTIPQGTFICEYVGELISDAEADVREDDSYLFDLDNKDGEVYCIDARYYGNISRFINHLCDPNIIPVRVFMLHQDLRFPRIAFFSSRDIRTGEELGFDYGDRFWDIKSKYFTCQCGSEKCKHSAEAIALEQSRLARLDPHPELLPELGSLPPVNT
Test: MDA-MB-231 H3K9me2 in-cell Western assay (EHMT2 ICW)
Type: cell-based
Settings: Table II; MDA-MB-231 H3K9me2 in-cell Western; read-out: EHMT2 ICW (IC50 μM)
Text: RPMI/Glutamax medium, Penicillin-Streptomycin, Heat Inactivated Fetal Bovine Serum, and D-PBS were purchased from Life Technologies (Grand Island, N.Y., USA). Odyssey blocking buffer, 800CW goat anti-mouse IgG (H+L) antibody, and Licor Odyssey Infrared Scanner were purchased from Licor Biosciences, Lincoln, Nebr., USA. […] 16% Paraformaldehyde was purchased from Electron Microscopy Sciences, Hatfield, Pa., USA).MDA-MB-231 cells were maintained in complete growth medium (RPMI supplemented with 10% v/v heat inactivated fetal bovine serum) and cultured at 37° C. under 5% CO2. UNC0638 was purchased from Sigma-Aldrich (St. Louis, Mo., USA).
Compound (100 nL) was added directly to 384-well cell plate. MDA-MB-231 cells (ATCC) were seeded in assay medium (RPMI/Glutamax supplemented with 10% v/v heat inactivated fetal bovine serum and 1% Penicillin/Streptomycin, Life Technologies) at a concentration of 3,000 cells per well to a Poly-D-Lysine coated 384-well cell culture plate with 50 μL per well. […] Plates were incubated at room temperature for 30 minutes and then incubated at 37° C., 5% CO2 for additional 48 hours. After the incubation, 50 μL per well of 8% paraformaldehyde (Electron Microscopy Sciences) in PBS was added to the plates and incubated at room temperature for 20 minutes. […] Next, 60 μL per well of Odyssey blocking buffer (Licor Biosciences) was added to each plate and incubated for 1 hour at room temperature. Blocking buffer was removed and 20 μL of monoclonal primary antibody α-H3K9me2 (Abcam) diluted 1:800 in Odyssey buffer with 0.1% Tween 20 (v/v) were added and plates were incubated overnight (16 hours) at 4° C. Plates were washed 5 times with 100 μL per well of wash buffer. Next 20 μL per well of secondary antibody was added (1:500 800CW donkey anti-mouse IgG (H+L) antibody (Licor Biosciences), 1:1000 DRAQ5 (Cell Signaling Technology) in Odyssey buffer with 0.1% Tween 20 (v/v)) and incubated for 1 hour at room temperature. The plates were washed 5 times with 100 μL per well wash buffer then 2 times with 100 μL per well of water. Plates were allowed to dry at room temperature then imaged on a Licor Odyssey Infrared Scanner (Licor Biosciences) which measured integrated intensity at 700 nm and 800 nm wavelengths. Both 700 and 800 channels were scanned.
First, the ratio for each well was determined by:
The average of the ratio values for each well was calculated and used to determine the percent inhibition for each test well in the plate. Control compound was serially diluted three-fold in DMSO for a total of 10 test concentrations beginning at 1 μM. Percent inhibition was calculated as: […]
IC50 curves were generated using triplicate wells per concentration of compound. […] IC50 values were calculated using a non-linear regression (variable slope-four parameter fit model) with by the following formula: […]

Row | Compound | IC50 [µM]
1 | COc1ccc(N(C)c2nccc(NCC3CCN(C(C)=O)CC3)n2)cc1OCCCN1CCCC1 [Compound 158] | > 10
2 | COc1ccc(Nc2nccc(NCC3CCN(C)CC3)n2)cc1OCCCNc1ccccc1 [Compound 159] | 1 to 10
3 | COc1ccc(Nc2nccc(NCC3CCN(C(C)=O)CC3)n2)cc1OCCCNc1ccccc1 [Compound 160] | > 10
4 | COc1ccc(Nc2nccc(N3CCC(NC(C)=O)CC3)n2)cc1OCCCN1CCCC1 [Compound 161] | > 10
5 | COc1ccc(Nc2nccc(N3CCN(S(C)(=O)=O)CC3)n2)cc1OCCCN1CCCC1 [Compound 162] | > 10
6 | COc1ccc(Nc2cc(N(C)CC3CCN(C(C)=O)CC3)ccn2)cc1OCCCN1CCCC1 [Compound 163] | > 10
7 | COc1ccc(Nc2nccc(NCc3ccc4[nH]ncc4c3)n2)cc1OCCCN1CCCC1 [Compound 164] | > 10
8 | COc1ccc(Nc2nccc(NCc3ccc(=O)[nH]c3)n2)cc1OCCCN1CCCC1 [Compound 165] | > 10
9 | COc1ccc(Nc2nccc(NCC3CCN(C(C)=O)CC3)n2)cc1OCCC(=O)N1CCCC1 [Compound 166] | > 10
10 | COc1ccc(Nc2nccc(NCCc3ccccn3)n2)cc1OCCCN1CCCC1 [Compound 167] | 0.1 to 1
11 | COc1ccc(Nc2nccc(N3CCN(c4ccccn4)CC3)n2)cc1OCCCN1CCCC1 [Compound 168] | 1 to 10
12 | COc1ccc(Nc2nccc(N3CCS(=O)(=O)CC3)n2)cc1OCCCN1CCCC1 [Compound 169] | > 10
13 | COc1ccc(Nc2nccc(N3CC(C(=O)N(C)C)C3)n2)cc1OCCCN1CCCC1 [Compound 170] | > 10
14 | COc1ccc(Nc2nccc(N(C)C)n2)cc1OCCCN1CCCC1 [Compound 171] | 1 to 10
15 | COc1ccc(Nc2nccc(N(C)CC3CCN(C(C)=O)CC3)n2)cc1OCCCN1CCCC1 [Compound 172] | > 10
16 | COc1ccc(Nc2cc(OCC3CCN(C(C)=O)CC3)ccn2)cc1OCCCN1CCCC1 [Compound 173] | > 10
17 | COc1ccc(Nc2nccc(C)n2)cc1OCCCN1CCCC1 [Compound 174] | > 10
18 | COc1ccc(Nc2nc(C)cc(C)n2)cc1OCCCN1CCCC1 [Compound 175] | > 10
19 | CNc1cccc(Nc2ccc(OC)c(OCCCN3CCCC3)c2)n1 [Compound 176] | > 10

Row | Compound | IC50 [µM]
20 | COCCN(C)c1ccnc(Nc2ccc(OC)c(OCCCN3CCCC3)c2)n1 [Compound 177] | > 10
21 | COc1ccc(Nc2nccc(NCCC3CCOCC3)n2)cc1OCCCN1CCCC1 [Compound 178] | 0.1 to 1
22 | COc1ccc(Nc2nccc(N3CC(C(N)=O)C3)n2)cc1OCCCN1CCCC1 [Compound 179] | > 10
23 | COc1ccc(Nc2nccc(-n3cc(C)cn3)n2)cc1OCCCN1CCCC1 [Compound 180] | > 10
24 | COc1ccc(Nc2ncc(CO)cn2)cc1OCCCN1CCCC1 [Compound 181] | > 10
25 | COc1cnc(Nc2cc(NCC3CCN(C(C)=O)CC3)ccn2)cc1OCCCN1CCCC1 [Compound 182] | > 10
26 | COc1ccc(Nc2nccc(NCC3CCN(C(C)=O)CC3)n2)cc1OCC(C)CN1CCCC1 (centres unmarked) [Compound 183] | 1 to 10
27 | COc1ccc(Nc2cncc(NCC3CCN(C(C)=O)CC3)c2)cc1OCCCN1CCCC1 [Compound 184] | > 10
28 | COc1ccc(Nc2cc(NCC3CCN(C(C)=O)CC3)cnn2)cc1OCCCN1CCCC1 [Compound 185] | > 10
29 | CNc1cc(C)nc(Nc2ccc(OC)c(OCCCN3CC[C@@H](F)C3)c2)n1 [Compound 186] | 0.1 to 1
30 | CNc1nc(Nc2ccc(OC)c(OCCCN3CCCC3)c2)ncc1F [Compound 187] | 1 to 10
31 | CNc1cc(Nc2ccc(OC)c(OCCCN3CCCC3)c2)cnn1 [Compound 188] | > 10
32 | COc1ccc(Nc2nccc(NCc3ccc4nccn4c3)n2)cc1OCCCN1CCCC1 [Compound 191] | 0.1 to 1
33 | COc1ccc(Nc2nccc(NC3CN(C(C)=O)C3)n2)cc1OCCCN1CCCC1 [Compound 192] | 1 to 10
34 | COc1ccc(Nc2nccc(NCCn3cccn3)n2)cc1OCCCN1CCCC1 [Compound 193] | 0.1 to 1
35 | COc1ccc(Nc2nccc(NCC3CCN(C(C)=O)CC3)n2)cc1OC(C)CCN1CCCC1 (centres unmarked) [Compound 195] | 1 to 10
36 | COc1ccc(Nc2nccc(NCC3CCN(S(C)(=O)=O)CC3)n2)cc1OCCCN1CCCC1 [Compound 199] | 1 to 10
37 | CCOC(=O)N1CCC(CNc2ccnc(Nc3ccc(OC)c(OCCCN4CCCC4)c3)n2)CC1 [Compound 203] | 0.1 to 1
38 | COc1ccc(Nc2nccc(NCC3CCOCC3)n2)cc1OCCN1CCOCC1 [Compound 204] | > 10
